Where no end group is shown, it is not given here.
Columns and labels:
MG63 cells [1] = test: p53 protein expression level, immunofluorescence staining quantified with ImageJ, osteosarcoma cells; assay type: cell-based, human; parameters: P53: unit not given here; details: for p53 (%): Table 4, cyclic GFR-binding peptide in association with SiRNA Integrin alpha 3 and SiRNA Integrin beta 1, 400 ng/mL, 24 hours; for P53: Table 9, in association with SiRNA Integrin alpha 3+SiRNA Integrin beta 1 (SEQ ID NO: 141 to 163)
Experimental: (§1) The following starting materials and reagents were used: • Type-I collagen sponge was obtained from Sigma®. • PBS 1× was obtained from Gibco®. • MilliQ water: is water characterised in terms of resistivity (typically 18.2 MΩ·cm at 25° C.). • Low glucose Dulbecco's Modified Eagle Medium (DMEM) was obtained from Invitrogen® • Minimum Essential Medium Eagle without ascorbic acid (αMEM) was obtained from Invitrogen®. • All of the cell culture experiments were carried out without any serum in the medium for the first 8 hours of culture. • Osteosarcoma cells: MG63 cells were obtained from ATCC®. These cells were cultured in DMEM (Eagle's Minimum Essential Medium) medium supplemented with 10% fetal calf serum (FCS) and 1% penicillin/streptomycin. All cells were used at a low passage number (passage 10), were subconfluently cultured and were seeded at 10^4 cells/cm^2 for the purpose of the experiments. • Chondrosarcoma cells Hs819.T cells were obtained from ATCC®. These cells were cultured in DMEM (Eagle's Minimum Essential Medium) medium supplemented with 10% fetal calf serum (FCS) and 1% penicillin/streptomycin. All cells were used at a low passage number (passage 10), were subconfluently cultured and were seeded at 10^4 cells/cm^2 for the purpose of the experiments. • Rhabdomyosarcoma cells: A-673 cells were obtained from ATCC®. These cells were cultured in DMEM (Eagle's Minimum Essential Medium) medium supplemented with 10% fetal calf serum (FCS) and 1% penicillin/streptomycin. All cells were used at a low passage number (passage 10), were subconfluently cultured and were seeded at 10^4 cells/cm^2 for the purpose of the experiments. • Adenocarcinoma cells: HCC4006 cells were obtained from ATCC®. These cells were cultured in RPMI-1640 medium (obtained from ATCC®) supplemented with 10% fetal calf serum (FCS) and 1% penicillin/streptomycin. All cells were used at a low passage number (passage 10), were subconfluently cultured and were seeded at 10^4 cells/cm^2 for the purpose of the experiments. • CMFDA is a Cell Tracker Green obtained from Invitrogen®. • DAPI was obtained from Sigma®. • Fetal bovine serum (FBS) was obtained from Gibco®. • Penicillin/streptomycin was obtained from Invitrogen®. • The AlamarBlue® assay was obtained from Molecular Probes®. • Anti phospho-p53 antibody was obtained from Santa Cruz Biotechnology®, • Anti pRB antibody was obtained from Santa Cruz Biotechnology®, • Monoclonal anti-integrin (extracellular domain) αv, α5, α3, α4, β1, β3, β5 and β9 antibodies were obtained from Santa Cruz Biotechnology®, • Cell cytoskeletal filamentous actin (F-actin) was visualized by Alexa Fluor® 488 phalloidin Sigma® labeling. • Monoclonal anti-vinculin antibody (clone hVIN-1, produced in mouse) was obtained from Sigma®.
(§2) • All of the peptides were synthetized using conventional solution and/or solid phase peptide synthesis methods. • All of the experiments were performed with a concentration of 400 ng/mL of GFR-binding compound(s) as defined herein. • All cell culture experiments were performed with cultures on plastic coated with type-I collagen in order to mimic the physiological conditions of the human body. • The compositions of pharmaceutical compositions used in the examples below are summarized in the following table:
(§3) The cells were first fixed for 20 min with 4% paraformaldehyde/PBS at 4° C. After fixation, the cells were permeabilized in PBS containing 1% Triton X-100 for 15 min. Protein immunofluorescent visualization was performed by first treating the cells with 1% (v/v) specific monoclonal antibodies for 1 hour at 37° C. Then the samples were incubated with Alexa Fluor® 568 or 647 (F(ab′)2 fragment of IgG(H+L)) during 30 min at room temperature. The cell nuclei were counterstained in 20 ng/mL DAPI for 10 min at room temperature.
(§4) For this type of quantification the freeware image analysis ImageJ® software was used. […]

MG63 cells [2] = test: pRB phosphorylation level, immunofluorescence staining quantified with ImageJ, osteosarcoma cells; assay type: cell-based, human; details: for pRB: Table 9, in association with SiRNA Integrin alpha 3+SiRNA Integrin beta 1 (SEQ ID NO: 141 to 163)
Experimental: as §1, §2, §3, §4

[3] = test system: human rhabdosarcoma cells; test: p53 quantification, same procedure, rhabdosarcoma cells; assay type: cell-based; parameters: P53: unit not given here; details: for P53: Table 9, in association with SiRNA Integrin alpha 3+RGDSPC+SiRNA Integrin beta 1+SiRNA Syndecan 1 (SEQ ID NO: 31, 32, 164 to 187)
Experimental: as §1, §2, §3, §4

[4] = test system: human rhabdosarcoma cells; test: pRB quantification, same procedure, rhabdosarcoma cells; assay type: cell-based; details: for pRB: Table 9, in association with SiRNA Integrin alpha 3+RGDSPC+SiRNA Integrin beta 1+SiRNA Syndecan 1 (SEQ ID NO: 31, 32, 164 to 187)
Experimental: as §1, §2, §3, §4

[5] = Table 4, MG63 cells, cyclic GFR-binding peptide in association with SiRNA Integrin alpha 3 and SiRNA Integrin beta 1, 400 ng/mL, 24 hours
[6] = Table 7, human osteosarcoma cells, MG63, GFR-binding compound within pharmaceutical association
[7] = Table 8, in association with SiRNA Integrin alpha 3, v, 4 and SiRNA Integrin beta 1
[8] = Table 5, cyclic GFR-binding peptide in association with SiRNA Integrin alpha 3+RGDSPC+SiRNA Integrin beta 1+SiRNA Syndecan 1, 400 ng/mL

APTGGSATSMLYYDKGVVTYLRKHRGGVVKDKGVVTY (also: cyclic, ring not given here) [SEQ ID NO: 38204]
p53 (%) (MG63 cells [1]): 37%
pRB (%) (MG63 cells [2]; [5]): 11%

APTLLNAISMLYFNDKQQIILKKYRLLVVRNDKQQII (also: cyclic, ring not given here) [SEQ ID NO: 38203]
p53 (%) (MG63 cells [1]): 44%
pRB (%) (MG63 cells [2]; [5]): 12%

APVAAKPLSMLYVDKGVVTYDHHKDAAVEEDEYDKVV (also: cyclic, ring not given here) [SEQ ID NO: 38209]
p53 (%) (MG63 cells [1]): 38%
pRB (%) (MG63 cells [2]; [5]): 11%

ASASPSSVPQDLEPLTILYYVGRTPKVEQLSNMV (Non-cyclic GFR-binding peptide) [SEQ ID NO: 55]
pRB (%) (MG63 cells [2]; [6]): 17%

CAPTKLSAISMLYLDSSNNVILKNYQ (Non-cyclic GFR-binding peptide) [SEQ ID NO: 154]
P53 (MG63 cells [1]): 40
pRB (MG63 cells [2]; MG63 cells): 14

CAPTQLSPISVLYKDDSSNVILKYHYTLEDH (Non-cyclic GFR-binding peptide) [SEQ ID NO: 148]
P53 (MG63 cells [1]): 42
pRB (MG63 cells [2]; MG63 cells): 9

CASAAPSSVPQKLNAISMLYFVGRKPKVLKKYRMIVRS (Non-cyclic GFR-binding peptide) [SEQ ID NO: 157]
P53 (MG63 cells [1]): 34
pRB (MG63 cells [2]; MG63 cells): 11

CASASPSSVSQDLNAISVLYFIGKTPKILKKYRMIVKSSKSS (Non-cyclic GFR-binding peptide) [SEQ ID NO: 145]
P53 (MG63 cells [1]): 38
pRB (MG63 cells [2]; MG63 cells): 6

CASASPSSVSQDLSAISTLYLIGKTPKILKNYQMIVKSSKSS (Non-cyclic GFR-binding peptide) [SEQ ID NO: 143]
P53 (MG63 cells [1]): 37
pRB (MG63 cells [2]; MG63 cells): 14

CASSAVSQELSAISMLYLGGGLKNYQDM (Non-cyclic GFR-binding peptide) [SEQ ID NO: 155]
P53 (MG63 cells [1]): 47
pRB (MG63 cells [2]; MG63 cells): 6

CAVPKASSAPTKLSATSVLYYDSSNNVVLRKHRNMVVK (Non-cyclic GFR-binding peptide) [SEQ ID NO: 146]
P53 (MG63 cells [1]): 38
pRB (MG63 cells [2]; MG63 cells): 11

CGGGSSVPTELSAISTLYLDDYDKVILKKYRNM (Non-cyclic GFR-binding peptide) [SEQ ID NO: 161]
P53 (MG63 cells [1]): 52
pRB (MG63 cells [2]; MG63 cells): 10

CKASSVPTELSPISTLYKDENEKVVLKYHYDMVVEGSGSR (Non-cyclic GFR-binding peptide) [SEQ ID NO: 156]
P53 (MG63 cells [1]): 45
pRB (MG63 cells [2]; MG63 cells): 8

CKIPKASSVPTELNAISVLYFDENEKVILKKYRDMVVEGSG (Non-cyclic GFR-binding peptide) [SEQ ID NO: 144]
P53 (MG63 cells [1]): 40
pRB (MG63 cells [2]; MG63 cells): 7

CKVGKASSVPTKLNAISTLYLDDSSNVILKNYQ (Non-cyclic GFR-binding peptide) [SEQ ID NO: 160]
P53 (MG63 cells [1]): 38
pRB (MG63 cells [2]; MG63 cells): 8

CKVGKASSVPTKLNAISTLYLDENEKVVLKKYREGMS (Non-cyclic GFR-binding peptide) [SEQ ID NO: 158]
P53 (MG63 cells [1]): 39
pRB (MG63 cells [2]; MG63 cells): 9

CKVGKASSVPTKLSAISTLYLDDMGVPTLKNYQNMVVRASGSH (Non-cyclic GFR-binding peptide) [SEQ ID NO: 142]
P53 (MG63 cells [1]): 36
pRB (MG63 cells [2]; MG63 cells): 8

CKVPKASSVPTELSAISTLYLAAAALKNYQEM (Non-cyclic GFR-binding peptide) [SEQ ID NO: 152]
P53 (MG63 cells [1]): 37
pRB (MG63 cells [2]; MG63 cells): 8

CKVPKPSSAPTQLSAISTLYLDEYDKVVLKNYQNMVVRA (Non-cyclic GFR-binding peptide) [SEQ ID NO: 141]
P53 (MG63 cells [1]): 41
pRB (MG63 cells [2]; MG63 cells): 11

CPKPSSAPTQLNAISMLYFGGGGGGGLKKYRNMVVRA (Non-cyclic GFR-binding peptide) [SEQ ID NO: 151]
P53 (MG63 cells [1]): 39
pRB (MG63 cells [2]; MG63 cells): 9

NDEGLECVPTEERPVQVRKIRIKPHQGQKKATVFLQHNK [SEQ ID NO: 54] (Non-cyclic GFR-binding peptide)
pRB (%) (MG63 cells [2]; [6]): 12%

NDEGLECVPTEERPVQVRKIRIKPHQGQKKATVFLQHNK [SEQ ID NO: 59] (Non-cyclic GFR-binding peptide)
pRB (%) (MG63 cells [2]; [6]): 22%

RNVQCRPTQLEPLPIVYYEIVRKKPEQLSNTLEDHLA [SEQ ID NO: 56] (Non-cyclic GFR-binding peptide)
pRB (%) (MG63 cells [2]; [6]): 21%

RNVQCRPTQLEPLPIVYYEIVRKKPEQLSNTLEDHLA [SEQ ID NO: 61] (Non-cyclic GFR-binding peptide)
pRB (%) (MG63 cells [2]; [6]): 18%

VPQQQEPLTTLYYDEYDKVVEQLSNQQVKS (Non-cyclic GFR-binding peptide) [SEQ ID NO: 134]
P53 (%) [3, 7]: 50%
pRB (%) [4, 7]: 8%

VPTAAEPISMLYLDEYDKVVKFKYEAAAVS (Non-cyclic GFR-binding peptide) [SEQ ID NO: 129]
P53 (%) [3, 7]: 42%
pRB (%) [4, 7]: 20%

VPTAAEPLTMLYYEIVRKKPIFEQLSNMVEHSDDMGVPT (also: cyclic peptide) [SEQ ID NO: 38223]
P53 (%) [3, 8]: 44%
pRB (%) [4, 8]: 17%

VPTAASAISILYLDAANNVVLKNYQAAVVE (Non-cyclic GFR-binding peptide) [SEQ ID NO: 123]
P53 (%) [3, 7]: 32%
pRB (%) [4, 7]: 11%

VPTDDSATSTLYYDKGVVTYLRKHRDDEHS (Non-cyclic GFR-binding peptide) [SEQ ID NO: 137]
P53 (%) [3, 7]: 42%
pRB (%) [4, 7]: 12%

VPTGGEPLTTLYYNDKQQIIEQLSNGGEHS (Non-cyclic GFR-binding peptide) [SEQ ID NO: 138]
P53 (%) [3, 7]: 45%
pRB (%) [4, 7]: 20%

VPTMMSNITTQIMRIKPHQGQHIGEMSMMQHN (Non-cyclic GFR-binding peptide) [SEQ ID NO: 135]
P53 (%) [3, 7]: 48%
pRB (%) [4, 7]: 16%

VPTSSSPISTLYIDKGVVTYLKYHYSSVAE (Non-cyclic GFR-binding peptide) [SEQ ID NO: 128]
P53 (%) [3, 7]: 36%
pRB (%) [4, 7]: 21%

VPTVVSAISTLYLRIKPHQGQHLKNYQVVVVE (Non-cyclic GFR-binding peptide) [SEQ ID NO: 125]
P53 (%) [3, 7]: 42%
pRB (%) [4, 7]: 9%

VPTVVSPISMLYIDDMGVPTYKQYEVVVVE (Non-cyclic GFR-binding peptide) [SEQ ID NO: 131]
P53 (%) [3, 7]: 36%
pRB (%) [4, 7]: 12%

VSQAARPVQTRKIDDMGVPTKKATVAAVKSDDMGVPT (also: cyclic peptide) [SEQ ID NO: 38220]
P53 (%) [3, 8]: 42%
pRB (%) [4, 8]: 9%

VSQDLSAISTLYLKIVRKEPLKNYQEMVEE (Non-cyclic GFR-binding peptide) [SEQ ID NO: 58]
pRB (%) (MG63 cells [2]; [6]): 19%

WWFWGASSAVSQELSAISMLYLGGGLKNYQDMQHN (Non-cyclic GFR-binding peptide) [SEQ ID NO: 171]
P53 [3]: 47
pRB [4]: 8

WWFWGKASSVPTELSPISTLYKDENEKVVLKYHYDMVVEGSGSR (Non-cyclic GFR-binding peptide) [SEQ ID NO: 170]
P53 [3]: 44
pRB [4]: 7

From patent US20190290729A1, “PHARMACEUTICAL ASSOCIATION OF GROWTH FACTOR RECEPTOR AGONIST AND ADHESION PROTEIN INHIBITOR FOR CONVERTING A NEOPLASTIC CELL INTO A NON-NEOPLASTIC CELL AND USES THEREOF” (HISTIDE AG, priority 2015, published 2019)
